# Assays:
# hUC-MSCs [1] = assay: Oxidative stress resistance capacity (ORC) analysis with RSL3; type: cell-based, human; conditions: hUC-MSCs, 0, 2.5, 5 or 10 μM liproxstatin-1 with 0, 0.5 or 1 μM RSL3; concentration-dependent
# Method: In addition, GH is calculated as the coefficient of variation or robust coefficient of variation of cellular FR. GRC refers to a value obtained by real-time monitoring of FR after living cells are treated with an oxidizing agent, as calculated by dividing a value obtained by subtracting AUC of a group treated with 0.1-100 mM N-ethylmaleimide (NEM) from FR AUC of an oxidizing agent (diamide, H2O2, etc.)-treated group by a value obtained by subtracting the AUC of NEM-treated group from AUC of the untreated control, and multiplying the resulting value by 100. The FR of the NEM-treated group is a value for increasing the sensitivity of a GRC value by treating it as the blank value of the FR of the cells of interest. […] To remove the MitoFreSH-Tracer from the medium before measurement, the medium was exchanged with fresh 10 mM HEPES-containing HBSS, and a fluorescence image was obtained using a confocal imaging system, Operetta. By comparing GSH levels quantified from control cells not treated with RSL3 or control cells before treated with RSL3, the distribution of GSH expression-changed cells was calculated. Based on the point where the distribution histogram is divided into two peaks, the cells were divided into GSH^High cells (right peak) and GSH^Low cells (left peak), and then a ratio of corresponding cells was expressed as a percentage (%). […]
# hUC-MSCs [2] = assay: CFU-F assay of hUC-MSCs; type: cell-based, human
# Method: (§1) The inventors observed an effect of the material on stem cells by treating each stem cells with a material for enhancing a glutathione evaluation parameter. When hUC-MSCs were subcultured in a L-AA2G-containing medium, CFU-F, migration capacity, and an anti-inflammatory effect were observed. A CFU-F assay (n=3) was performed by treating hUC-MSCs with 125 or 250 μg/mL of AA2G for three days. As shown in FIGS. 16A and 16B, it was confirmed that, when AA2G was treated, CFU-F increased. In addition, as hUC-MSCs were treated with 125 or 250 μg/mL of AA2G for three days, PDGF-AA-induced migration capacity (n=3) was analyzed. As shown in FIGS. 17A and 17B, it was confirmed that the migration capacity was increased by AA2G treatment. In addition, the reduction in T cell proliferation, a reduction in T cell differentiation, and the promotion of Treg cell differentiation were observed by treating hUC-MSCs with 125 or 250 μg/mL of AA2G for three days. […] Meanwhile, hUC-MSCs were cultured with a glutathione precursor such as γ-glutamyl cysteine (GGC, 0.1, 0.25, and 0.5 mM). A CFU-F assay (n=3) was performed by treating hUC-MSCs with each concentration of GGC for 2 hours. […] In addition, SDF1α and PDGF-AA-induced migration capacities (n=3) were analyzed for hUC-MSCs without treatment with GGC, and SDF1α- and PDGF-AA-induced migration abilities (n=3) were analyzed by treating hUC-MSCs with the increasing concentrations of GGC. STI571 was used as a PDGFR kinase inhibitor. As shown in FIGS. 20A to 20C, it was confirmed that, according to an increase in GGC treatment concentration, SDF1α- and PDGF-AA-induced migration capacities were enhanced. A CFU-F assay (n=3) was performed by treating hUC-MSCs with 0.2, 1, 2, and 4 μM ferrostatin-1 and 0.1, 0.5, 1, and 2 μM liproxstatin-1 for 24 hours.
# T cells = assay: Anti-inflammatory effect of treated hUC-MSCs: T cell proliferation, T cell differentiation, Treg cell differentiation; type: cell-based; conditions: for T cell differentiation capacity / T cell proliferation ability / Treg cell differentiation: hUC-MSCs treated with 1 μM ferrostatin-1 24 h, 0.2 mM GGC 2 h or 2 mM GSH-EE 2 h
# Method: The inventors observed an effect of the material on stem cells by treating each stem cells with a material for enhancing a glutathione evaluation parameter. When hUC-MSCs were subcultured in a L-AA2G-containing medium, CFU-F, migration capacity, and an anti-inflammatory effect were observed. A CFU-F assay (n=3) was performed by treating hUC-MSCs with 125 or 250 μg/mL of AA2G for three days. As shown in FIGS. 16A and 16B, it was confirmed that, when AA2G was treated, CFU-F increased. In addition, as hUC-MSCs were treated with 125 or 250 μg/mL of AA2G for three days, PDGF-AA-induced migration capacity (n=3) was analyzed. As shown in FIGS. 17A and 17B, it was confirmed that the migration capacity was increased by AA2G treatment. In addition, the reduction in T cell proliferation, a reduction in T cell differentiation, and the promotion of Treg cell differentiation were observed by treating hUC-MSCs with 125 or 250 μg/mL of AA2G for three days.
# In addition, hUC-MSCs were cultured with ferrostatin-1 (0.2, 1, 2 and 4 μM) and liproxstatin-1 (0.1, 0.5, 1 and 2 μM), which control a glutathione level in cells by inhibiting lipid oxidation. […] Meanwhile, the hUC-MSCs were treated with 1 μM ferrostatin-1 for 24 hours, 0.2 mM GGC for 2 hours, and 2 mM GSH-EE for 2 hours. As a result, the reduction in T cell proliferation ability and the reduction in T cell differentiation capacity were observed, and promotion of Treg cell differentiation was observed.
# hES-MSCs [3] = assay: CFU-F of FreSH-Tracer-sorted hES-MSCs; type: cell-based, human
# Method: Twelve hours after hES-MSCs were seeded in […] tissue culture media at a density of 3×10^6 cells/mL, the cells were washed two times with 30 mL of PBS, and labeled with an EGM-2 MV culture solution containing 2 μM FreSH for 2 hours. After the two hours, the cells were washed with 2 μM FreSH-containing PBS twice and treated with a TrypsinLE (Invitrogen) solution to detach the cells, and then trypsin was inactivated with a fresh EGM-2 MV medium containing 2 μM FreSH. Afterward, the cells were centrifuged at 4° C. and 2000 rpm for 20 minutes, and resuspended in a fresh EGM-2 MV medium containing 2 μM FreSH to have a density of 5×10^7 cells/mL. The suspension was diluted 1/5 with PBS containing 2 μM FreSH immediately before loading for FACS (diluted by approximately 1 mL at a time to maintain a temperature of 4° C.).
# Afterward, under the following conditions, FACS Instruction (BD ARIAIII, laser at wavelengths of 405 (for measuring F510) and 488 (for measuring F580), nozzle size: 100 μm, 2,000-3,000 events/sec), FACS analysis was performed by gating the cells corresponding to the upper 3.9-35% and the lower 3.9-35% of total cells according to the F510/F580 ratio. […]
# Main factors for determining the therapeutic efficacy of hBM-MSCs, namely a colony forming unit-fibroblast (CFU-F) and a graft survival rate, were evaluated in cell culture models. […]
# hES-MSCs [4] = assay: PDGF-AA-induced cell migration of unsorted hES-MSCs; type: cell-based, human; conditions: hES-MSCs not sorted by FreSH-Tracer
# Method: Main factors for determining the therapeutic efficacy of hBM-MSCs, namely a colony forming unit-fibroblast (CFU-F) and a graft survival rate, were evaluated in cell culture models.
# In order to test whether direct control of a GSH level in stem cells leads to changes in cell functions, hES-MSCs sorted by FreSH-Tracer were treated with buthionine sulfoximine (BSO; glutathione synthesis inhibitor) and glutathione ethyl ester (GSH-EE). When GSH was decreased in cells by treating GSH^High cells with BSO (80 μM, 24 h), it was confirmed that CFU-F increased, and on the other hand, when GSH was increased by treating GSH^Low cells with GSH-EE (1 mM, 2 h), it was confirmed that CFU-F decreased (FIG. 13A). In addition, it was confirmed that, when hES-MSCs which were not sorted by FreSH-Tracer were treated with BSO or GSH-EE, PDGF-AA-induced cell migration capacity was decreased or increased, respectively (FIG. 13B).
# hUC-MSCs [5] = assay: SDF1α- and PDGF-AA-induced migration capacity of hUC-MSCs; type: cell-based, human; conditions: increasing GGC concentration (0.1, 0.25 mM)
# Method: as §1, with “enhanced.” for “enhanced. A CFU-F assay (n=3) was performed by treating hUC-MSCs with 0.2, 1, 2, and 4 μM ferrostatin-1 and 0.1, 0.5, 1, and 2 μM liproxstatin-1 for 24 hours.”
compound,measurement,setting,value
Clc1cccc(CN=C2Nc3ccccc3NC23CCNCC3)c1 [liproxstatin-1],ratio of the GSH^High cells (ORC),hUC-MSCs [1],increased
same,CFU-F,"hUC-MSCs [2]; ferrostatin-1 0.2, 1, 2, 4 μM or liproxstatin-1 0.1, 0.5, 1, 2 μM, 24 hours",improved
same,anti-inflammatory effect of the hUC-MSCs,"T cells; ferrostatin-1 or liproxstatin-1 treatment (FIGS. 27, 28A to 28C)",did not alter
"CCOC(=O)CNC(=O)[C@H](CS)NC(=O)CC[C@H](N)C(=O)O [GSH-EE, glutathione ethyl ester]",CFU-F,"hES-MSCs [3]; GSH^Low hES-MSCs, GSH-EE 1 mM, 2 h",decreased
same,PDGF-AA-induced cell migration capacity,hES-MSCs [4],increased
same,T cell differentiation capacity,T cells,reduction
same,T cell proliferation ability,T cells,reduction
same,Treg cell differentiation,T cells,promotion
"N[C@@H](CCC(=O)N[C@@H](CS)C(=O)O)C(=O)O [GGC, γ-glutamyl cysteine]",CFU-F,"hUC-MSCs [2]; GGC 0.1, 0.25 and 0.5 mM, 2 hours",increased
same,PDGF-AA-induced migration capacity,hUC-MSCs [5],enhanced
same,SDF1α-induced migration capacity,hUC-MSCs [5],enhanced
same,T cell differentiation capacity,T cells,reduction
same,T cell proliferation ability,T cells,reduction
same,Treg cell differentiation,T cells,promotion
same,anti-inflammatory effect,"T cells; hUC-MSCs with GGC treatment (FIGS. 27, 28A to 28C)",no change
"CCCCS(=N)(=O)CCC(N)C(=O)O (centres unmarked) [BSO, buthionine sulfoximine]",CFU-F,"hES-MSCs [3]; GSH^High hES-MSCs, BSO 80 μM, 24 h",increased
same,PDGF-AA-induced cell migration capacity,hES-MSCs [4],decreased

# Source: US11841369B2, “Method for improving quality of therapeutic cell through real-time glutathione measurement” (CELL2IN, INC., priority 2017, dated 2023)
